Results on 18 compounds are retold here after patent publication US12227520B2 (priority 2019, dated 2025).

A word on the CC50: it is the concentration giving 50% cytotoxicity.

The test system of series [1] is HIV-1 (IIIB). Briefly: Antiviral assay in MT-4 cells (HIV MT-4 antiviral assay). The conditions noted are these: Human immunodeficiency virus 1, IIIB, MT4, 120 h, HIV-1 (IIIB) in MT-4 cells, 5 days incubation; read-out: EC50. It counts as cell-based. In a few lines: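 MT-4 cells infected with HIV-1 IIIB (1:250 diluted stock) and exposed to 1:3 serially diluted compound in RPMI with 10% FBS. Viability read by CellTiter-Glo luminescence after 5 days at 37° C; mock-infected cells and 5 μM AZT as controls.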

The nature of series [2]: Cytotoxicity assay in MT-4 cells. Format: cell-based, human. The conditions noted are these: human. In a few lines: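 Infected MT-4 cells (HIV-1 IIIB, fresh 1:250 dilution of concentrated stock) or mock-infected cells exposed to compounds for 5 days at 37 °C. Viability by CellTiter-Glo luminescence; 5 μM AZT positive control, no-drug negative control. Uninfected cells used for cytotoxicity, with 10 μM puromycin as base-level cytotoxicity control.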

Series [3] concerns pLai RLuc reporter virus. Briefly: microbe, parasite or virus in culture. It counts as cell-based, HIV. The conditions noted are these: Human immunodeficiency virus 1, 72 h. The method, boiled down: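 MT-4 cells pre-infected 2 h at 37 °C with pLai RLuc virus, then exposed to 1:3 serial dilutions of compound in RPMI/10% FBS with or without 50% human serum for 72 h at 37 °C. Renilla luminescence read-out; serum shift = EC50(HS/CCM)/EC50(CCM).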

The mark [4] stands for this setting: uninfected MT-4 cells, 5 days incubation, read-out: CC50.
[5] abbreviates: read-out: Antiviral Serum Shift RLuc 50% HS, HS/CCM (RPMI media, 10% FBS, 50% HS, 1% P/S), 72-h incubation.
[6] abbreviates: read-out: Antiviral Serum Shift RLuc CCM, CCM (RPMI media, 10% FBS, 1% P/S), 72-h incubation.

The structures appear in SMILES notation. Where two headings read alike, the source gives them in different places.

Take `C[C@H]1CCC[C@H]2CN1C(=O)c1c(O)c(=O)c(C(=O)NCc3c(F)cc(F)cc3F)cn12` [Example 98, (3S, 7S)-12-hydroxy-3-methyl-1,11-dioxo-N-(2,4,6-trifluorobenzyl)-1,4,5,6,7,11-hexahydro-3H-2,7-methanopyrido[1,2-a][1,4]diazonine-10-carboxamide]: the EC50 in series [1] is 1.27 nM; in series [3] (setting [5]) it was 19.2 nM; in series [3] (setting [6]), 0.284 nM. Also, the CC50 at 5 days in series [2] (setting [4]) turned out to be 14300 nM.
`CC[C@]1(OC)CCCN2C[C@H]1n1cc(C(=O)NCc3c(F)cc(F)cc3F)c(=O)c(O)c1C2=O` [Example 100, (6S,7R)-6-ethyl-12-hydroxy-6-methoxy-1,11-dioxo-N-(2,4,6-trifluorobenzyl)-1,4,5,6,7,11-hexahydro-3H-2,7-methanopyrido[1,2-a][1,4]diazonine-10-carboxamide]: the EC50 in series [1] turned out to be 1.58 nM; in series [3] (setting [5]), 1.77 nM; in series [3] (setting [6]), 0.631 nM. Further, the cytotoxic concentration (CC50) at 5 days in series [2] (setting [4]) came to 9440 nM.
In the case of `O=C(NCc1c(F)cc(F)cc1F)c1cn2c(c(O)c1=O)C(=O)N1CC=CC[C@H]2C1` [Example 101, (7S)-12-hydroxy-1,11-dioxo-N-(2,4,6-trifluorobenzyl)-1,6,7,11-tetrahydro-3H-2,7-methanopyrido[1,2-a][1,4]diazonine-10-carboxamide], the EC50 worked out at 1.52 nM in series [1], 1.62 nM in series [3] (setting [5]) and 0.22 nM in series [3] (setting [6]). The CC50 at 5 days in series [2] (setting [4]) was determined as 19500 nM.
For the compound `O=C(NCc1c(F)cc(F)cc1F)c1cn2c(c(O)c1=O)C(=O)N1C[C@@H]2CCc2sccc21` [Example 104-1, (11S)-6-hydroxy-5,7-dioxo-N-(2,4,6-trifluorobenzyl)-5,7,12,13-tetrahydro-11H-4,11-methanopyrido[1,2-a]thieno[3,2-e][1,4]diazonine-8-carboxamide], the results for the EC50 in series [1], in series [3] (setting [5]) and in series [3] (setting [6]) were 1.48 nM, 1.99 nM and 0.323 nM, respectively. In addition, the CC50 at 5 days in series [2] (setting [4]) was 11900 nM.
For `C[C@@H]1CC[C@H]2CN(C(=O)c3c(O)c(=O)c(C(=O)NCc4c(F)cc(F)cc4F)cn32)[C@H]1C` [Example 108-1, (3S,4R,7S)-12-hydroxy-3,4-dimethyl-1,11-dioxo-N-(2,4,6-trifluorobenzyl)-1,4,5,6,7,11-hexahydro-3H-2,7-methanopyrido[1,2-a][1,4]diazonine-10-carboxamide], the EC50 is 0.997 nM in series [1], 1.31 nM in series [3] (setting [5]) and 0.2 nM in series [3] (setting [6]). Moreover, the CC50 at 5 days in series [2] (setting [4]) came out at 16100 nM.
Turning to `C[C@H]1CC[C@H]2CN(C(=O)c3c(O)c(=O)c(C(=O)NCc4c(F)cc(F)cc4F)cn32)[C@H]1C` [Example 108-2, (3S,4S,7S)-12-hydroxy-3,4-dimethyl-1,11-dioxo-N-(2,4,6-trifluorobenzyl)-1,4,5,6,7,11-hexahydro-3H-2,7-methanopyrido[1,2-a][1,4]diazonine-10-carboxamide], the figures for the EC50 in series [1], in series [3] (setting [5]) and in series [3] (setting [6]) were 0.917 nM, 1.55 nM and 0.335 nM, respectively. Further, the CC50 at 5 days in series [2] (setting [4]) was found to be 11800 nM.
The like results for `O=C(NCc1c(F)cc(F)cc1F)c1cn2c(c(O)c1=O)C(=O)N1CCC=C[C@@H]2C1` [Example 109-1, (7R)-12-hydroxy-1,11-dioxo-N-(2,4,6-trifluorobenzyl)-1,4,7,11-tetrahydro-3H-2,7-methanopyrido[1,2-a][1,4]diazonine-10-carboxamide] were, in that order, 1.81 nM, 50.8 nM, 0.527 nM and 11300 nM.
With `O=C(NCc1c(F)cc(F)cc1F)c1cn2c(c(O)c1=O)C(=O)N1CCC=C[C@H]2C1` [Example 109-2, (7S)-12-hydroxy-1,11-dioxo-N-(2,4,6-trifluorobenzyl)-1,4,7,11-tetrahydro-3H-2,7-methanopyrido[1,2-a][1,4]diazonine-10-carboxamide], the results for the EC50 in series [1], in series [3] (setting [5]) and in series [3] (setting [6]) were 1.47 nM, 4.34 nM and 0.236 nM, respectively. The CC50 at 5 days in series [2] (setting [4]) came out at 11800 nM.
As to `C[C@H]1CC(F)(F)C[C@H]2CN1C(=O)c1c(O)c(=O)c(C(=O)NCc3c(F)cc(F)cc3F)cn12` [Example 113, (3S,7S)-5,5-difluoro-12-hydroxy-3-methyl-1,11-dioxo-N-(2,4,6-trifluorobenzyl)-1,4,5,6,7,11-hexahydro-3H-2,7-methanopyrido[1,2-a][1,4]diazonine-10-carboxamide], the EC50 was found to be 1.42 nM in series [1], 0.62 nM in series [3] (setting [5]) and 0.514 nM in series [3] (setting [6]). Also, in series [2] (setting [4]), the half-maximal cytotoxic concentration (CC50) at 5 days turned out to be 16900 nM.
As to `O=C(NCc1c(F)cc(F)cc1F)c1cn2c(c(O)c1=O)C(=O)N1CCC(F)(F)C[C@H]2C1` [Example 114, (7S)-5,5-difluoro-12-hydroxy-1,11-dioxo-N-(2,4,6-trifluorobenzyl)-1,4,5,6,7,11-hexahydro-3H-2,7-methanopyrido[1,2-a][1,4]diazonine-10-carboxamide], the EC50 in series [1] is 2.27 nM; in series [3] (setting [5]), 1.04 nM; in series [3] (setting [6]), 0.717 nM. Moreover, the CC50 at 5 days in series [2] (setting [4]) stood at 30500 nM.
Turning to `C[C@]1(F)CCN2C[C@H](C1)n1cc(C(=O)NCc3c(F)cc(F)cc3F)c(=O)c(O)c1C2=O` [Example 115-1, (5S,7S)-5-fluoro-12-hydroxy-5-methyl-1,11-dioxo-N-(2,4,6-trifluorobenzyl)-1,4,5,6,7,11-hexahydro-3H-2,7-methanopyrido[1,2-a][1,4]diazonine-10-carboxamide], the EC50 in series [1] is 1.48 nM; in series [3] (setting [5]), 0.713 nM; in series [3] (setting [6]), 0.271 nM. Further, the CC50 at 5 days in series [2] (setting [4]) was found to be 12200 nM.
For `O=C(NCc1c(F)cc(F)cc1F)c1cn2c(c(O)c1=O)C(=O)N1CCC(F)=C[C@H]2C1` [Example 121, (7S)-5-fluoro-12-hydroxy-1,11-dioxo-N-(2,4,6-trifluorobenzyl)-1,4,7,11-tetrahydro-3H-2,7-methanopyrido[1,2-a][1,4]diazonine-10-carboxamide], the EC50 was 1.76 nM in series [1], 0.505 nM in series [3] (setting [5]) and 0.235 nM in series [3] (setting [6]). Besides, in series [2] (setting [4]), the CC50 at 5 days worked out at 24800 nM.
For the compound `O=C(NCc1c(F)cc(F)c(F)c1F)c1cn2c(c(O)c1=O)C(=O)N1CCCC[C@H]2C1` [Example 125, (7S)-12-hydroxy-1,11-dioxo-N-(2,3,4,6-tetrafluorobenzyl)-1,4,5,6,7,11-hexahydro-3H-2,7-methanopyrido[1,2-a][1,4]diazonine-10-carboxamide], the EC50 in series [1] came to 2.95 nM; in series [3] (setting [5]) it was 1.97 nM; in series [3] (setting [6]), 0.328 nM. For the same compound, in series [2] (setting [4]), the CC50 at 5 days amounted to 10200 nM.
As to `O=C(NCc1c(F)cc(F)cc1F)c1cn2c(c(O)c1=O)C(=O)N1C[C@@H]2CCCC12CC2` [Example 129, (7'S)-12′-hydroxy-1′,11′-dioxo-N-(2,4,6-trifluorobenzyl)-1′,4′,5′,6′,7′,11′-hexahydrospiro[cyclopropane-1,3′-[2,7]methanopyrido[1,2-a][1,4]diazonine]-10′-carboxamide], the values for the EC50 in series [1], in series [3] (setting [5]) and in series [3] (setting [6]) were 1.53 nM, 4.21 nM and 0.309 nM, respectively. Besides, the cytotoxic concentration (CC50) at 5 days in series [2] (CC50) worked out at 7440 nM.
For the compound `CC[C@@H]1CCC[C@H]2CN1C(=O)c1c(O)c(=O)c(C(=O)NCc3c(F)cc(F)cc3F)cn12` [Example 130-1, (3R,7S)-3-ethyl-12-hydroxy-1,11-dioxo-N-(2,4,6-trifluorobenzyl)-1,4,5,6,7,11-hexahydro-3H-2,7-methanopyrido[1,2-a][1,4]diazonine-10-carboxamide], the EC50 was found to be 1.53 nM in series [1], 4.17 nM in series [3] (setting [5]) and 0.213 nM in series [3] (setting [6]). In addition, the CC50 at 5 days in series [2] (setting [4]) turned out to be 12200 nM.
In the same order, the values of `O=C(NCc1c(F)cc(F)cc1F)c1cn2c(c(O)c1=O)C(=O)N1C[C@@H]2CCC[C@@H]1C(F)F` [Example 131, (3R, 7S)-3-(difluoromethyl)-12-hydroxy-1,11-dioxo-N-(2,4,6-trifluorobenzyl)-1,4,5,6,7,11-hexahydro-3H-2,7-methanopyrido[1,2-a][1,4]diazonine-10-carboxamide] are 1.68 nM, 11 nM, 0.25 nM and 10200 nM.
On to `O=C(NCc1c(F)cc(F)cc1F)c1cn2c(c(O)c1=O)C(=O)N1CCc3cc(Cl)ccc3[C@@H]2C1` [Example 136-2, (13R)-10-chloro-4-hydroxy-3,5-dioxo-N-(2,4,6-trifluorobenzyl)-3,5,8,13-tetrahydro-7H-6,13-methanobenzo[g]pyrido[1,2-a][1,4]diazonine-2-carboxamide], for which the EC50 came to 1.55 nM in series [1], 5.71 nM in series [3] (setting [5]) and 0.392 nM in series [3] (setting [6]). Besides, in series [2] (setting [4]), the 50% cytotoxic concentration (CC50) at 5 days stood at 6550 nM.
As for `C[C@H]1CC[C@H]2CN(C1)C(=O)c1c(O)c(=O)c(C(=O)NCc3c(F)cc(F)cc3F)cn12` [Example 137-1, (4S,7S)-12-hydroxy-4-methyl-1,11-dioxo-N-(2,4,6-trifluorobenzyl)-1,4,5,6,7,11-hexahydro-3H-2,7-methanopyrido[1,2-a][1,4]diazonine-10-carboxamide], the EC50 in series [1] was determined as 2.63 nM; in series [3] (setting [5]), 0.707 nM; in series [3] (setting [6]), 0.184 nM. Also, the half-maximal cytotoxic concentration (CC50) at 5 days in series [2] (setting [4]) is 14700 nM.
